Assay results reported in the CombiSolv-Exp solvation set (Vermeire and Green 2021).

Assay: solvent given as SMILES

Compound: CC(=O)CC(C)C
- solvation free energy, 298 K (in C1COCCO1): -5.32 kcal/mol
- solvation free energy, 298 K (in CC(=O)N(C)C): -5.24 kcal/mol
- solvation free energy, 298 K (in CCCCCCCC): -4.34 kcal/mol
- solvation free energy, 298 K (in CCCCN(C=O)CCCC): -5.03 kcal/mol
- solvation free energy, 298 K (in CCOP(=O)(OCC)OCC): -4.94 kcal/mol
- solvation free energy, 298 K (in CN1CCCC1=O): -5.14 kcal/mol
- solvation free energy, 298 K (in CN1CCCCC1=O): -5.12 kcal/mol
- solvation free energy, 298 K (in CN1CCN(C)C1=O): -4.91 kcal/mol
- solvation free energy, 298 K (in CNC(C)=O): -4.82 kcal/mol
- solvation free energy, 298 K (in NC=O): -4.19 kcal/mol
- solvation free energy, 298 K (in O): -3.06 kcal/mol
- solvation free energy, 298 K (in O=CN1CCOCC1): -4.62 kcal/mol
- solvation free energy, 298 K (in OCCOCCO): -4.21 kcal/mol

Compound: COc1ccccc1N
- solvation free energy, 298 K (in O): -6.12 kcal/mol

Compound: N#Cc1ccccc1
- solvation free energy, 298 K (in CCCCCCC): -5.33 kcal/mol
- solvation free energy, 298 K (in CCCCCCCCO): -6 kcal/mol
- solvation free energy, 298 K (in O): -4.11 kcal/mol
- solvation free energy, 298 K (in [2H]O[2H]): -3.82 kcal/mol

Compound: CCOC(=O)c1ccc(O)cc1
- solvation free energy, 298 K (in O): -9.2 kcal/mol

Compound: CCOP(=S)(OCC)Oc1ccc([N+](=O)[O-])cc1
- solvation free energy, 298 K (in O): -6.74 kcal/mol

Compound: COC(C)OC
- solvation free energy, 298 K (in O): -3.26 kcal/mol

Compound: CCCCCCCCCCCO
- solvation free energy, 298 K (in CCCCCCCCCCO): -10.3 kcal/mol

Compound: Oc1ccccc1
- solvation free energy, 298 K (in CC(C)CC(C)(C)C): -5.23 kcal/mol
- solvation free energy, 298 K (in CCCCCCC): -4.97 kcal/mol
- solvation free energy, 298 K (in CCCCCCCCCC): -5.49 kcal/mol
- solvation free energy, 298 K (in Cc1ccc(C)cc1): -6.77 kcal/mol
- solvation free energy, 298 K (in Cc1cccc(C)c1): -6.78 kcal/mol
- solvation free energy, 298 K (in Cc1ccccc1C): -6.84 kcal/mol
- solvation free energy, 298 K (in O): -6.62 kcal/mol

Compound: CNC1CCCCC1
- solvation free energy, 298 K (in C1CCCCC1): -6.05 kcal/mol

Compound: CN(C)CCC=C1c2ccccc2CCc2ccccc21
- solvation free energy, 298 K (in O): -7.43 kcal/mol

Compound: CC(=O)OCC(C)C
- solvation free energy, 298 K (in CCCCCCCCCCCCCCCC): -4.32 kcal/mol
- solvation free energy, 298 K (in CCCCCCCCO): -4.71 kcal/mol
- solvation free energy, 298 K (in O): -2.41 kcal/mol
- solvation free energy, 298 K (in [2H]O[2H]): -2.47 kcal/mol

Compound: COc1c(Cl)cc(Cl)c(OC)c1O
- solvation free energy, 298 K (in O): -6.44 kcal/mol

Compound: O=S(=O)(c1ccccc1)c1ccccc1
- solvation free energy, 298 K (in C1CCOC1): -14.9 kcal/mol
- solvation free energy, 298 K (in C1COCCO1): -15 kcal/mol
- solvation free energy, 298 K (in CC(C)(C)O): -13.2 kcal/mol
- solvation free energy, 298 K (in CC(C)CC(C)(C)C): -11.6 kcal/mol
- solvation free energy, 298 K (in CC(C)CCO): -13.1 kcal/mol
- solvation free energy, 298 K (in CC(C)CO): -13.2 kcal/mol
- solvation free energy, 298 K (in CC(C)O): -13.2 kcal/mol
- solvation free energy, 298 K (in CC(C)OC(C)C): -13.1 kcal/mol
- solvation free energy, 298 K (in CCC(C)CO): -13.2 kcal/mol
- solvation free energy, 298 K (in CCC(C)O): -13.4 kcal/mol
- solvation free energy, 298 K (in CCCC(C)O): -13.1 kcal/mol
- solvation free energy, 298 K (in CCCCCC): -11.8 kcal/mol
- solvation free energy, 298 K (in CCCCCCC): -11.8 kcal/mol
- solvation free energy, 298 K (in CCCCCCCC): -11.8 kcal/mol
- solvation free energy, 298 K (in CCCCCCCCCC): -11.8 kcal/mol
- solvation free energy, 298 K (in CCCCCCCCCCO): -12.8 kcal/mol
- solvation free energy, 298 K (in CCCCCCCO): -13.1 kcal/mol
- solvation free energy, 298 K (in CCCCCCO): -13.2 kcal/mol
- solvation free energy, 298 K (in CCCCCO): -13.3 kcal/mol
- solvation free energy, 298 K (in CCCCCl): -14.1 kcal/mol
- solvation free energy, 298 K (in CCCCO): -13.4 kcal/mol
- solvation free energy, 298 K (in CCCCOC(C)=O): -14.2 kcal/mol
- solvation free energy, 298 K (in CCCCOCCCC): -12.8 kcal/mol
- solvation free energy, 298 K (in CCCO): -13.5 kcal/mol
- solvation free energy, 298 K (in CCO): -13.6 kcal/mol
- solvation free energy, 298 K (in CCOC(C)=O): -14.6 kcal/mol
- solvation free energy, 298 K (in CCOCC): -13.7 kcal/mol
- solvation free energy, 298 K (in CO): -13.8 kcal/mol
- solvation free energy, 298 K (in COC(C)(C)C): -13.5 kcal/mol
- solvation free energy, 298 K (in COC(C)=O): -14.7 kcal/mol
- solvation free energy, 298 K (in O): -10.1 kcal/mol

Compound: CC(=O)CC(C)=O
- solvation free energy, 298 K (in C1CCCCC1): -4.89 kcal/mol
- solvation free energy, 298 K (in CC(C)O): -5.03 kcal/mol
- solvation free energy, 298 K (in CCC(C)O): -5.05 kcal/mol
- solvation free energy, 298 K (in CCCO): -5.03 kcal/mol
- solvation free energy, 298 K (in CCO): -5.43 kcal/mol
- solvation free energy, 298 K (in O): -4.84 kcal/mol

Compound: C=C(C)CC(C)(C)C
- solvation free energy, 298 K (in CCC(C)=O): -4.34 kcal/mol
- solvation free energy, 298 K (in O): 2.01 kcal/mol
- solvation free energy, 298 K (in OCCO): -1.42 kcal/mol
- solvation free energy, 298 K (in OCCOCCO): -2.19 kcal/mol
- solvation free energy, 298 K (in OCCOCCOCCO): -2.29 kcal/mol

Compound: C=CC(C)CC (configuration not stated)
- solvation free energy, 298 K (in CC#N): -2.7 kcal/mol

Compound: Cc1ccc(O)c(C)c1
- solvation free energy, 298 K (in CCCCCC): -6.51 kcal/mol
- solvation free energy, 298 K (in CCCCCCC): -6.48 kcal/mol
- solvation free energy, 298 K (in CCCCCCCC): -6.46 kcal/mol
- solvation free energy, 298 K (in O): -6.02 kcal/mol

Compound: CCC(C)C(C)C (configuration not stated)
- solvation free energy, 298 K (in C=CCCCCCCCCCCCCCC): -3.97 kcal/mol
- solvation free energy, 298 K (in CC#N): -3.2 kcal/mol

Compound: COS(=O)(=O)OC
- solvation free energy, 298 K (in O): -5.1 kcal/mol

Compound: C=C(C)C
- solvation free energy, 298 K (in CC(C)(C)O): -2.03 kcal/mol
- solvation free energy, 298 K (in CC(C)=O): -2.37 kcal/mol
- solvation free energy, 298 K (in CC(C)CCO): -1.99 kcal/mol
- solvation free energy, 298 K (in CC(C)CO): -1.98 kcal/mol
- solvation free energy, 298 K (in CC(C)O): -1.98 kcal/mol
- solvation free energy, 298 K (in CCC(C)(C)O): -2.09 kcal/mol
- solvation free energy, 298 K (in CCC(C)CO): -1.98 kcal/mol
- solvation free energy, 298 K (in CCC(C)O): -1.99 kcal/mol
- solvation free energy, 298 K (in CCC(O)CC): -2.01 kcal/mol
- solvation free energy, 298 K (in CCCC(C)O): -2.01 kcal/mol
- solvation free energy, 298 K (in CCCCC): -2.49 kcal/mol
- solvation free energy, 298 K (in CCCCCC): -2.43 kcal/mol
- solvation free energy, 298 K (in CCCCCCC): -2.44 kcal/mol
- solvation free energy, 298 K (in CCCCCCCC): -2.41 kcal/mol
- solvation free energy, 298 K (in CCCCCCCCC): -2.39 kcal/mol
- solvation free energy, 298 K (in CCCCCCCCCC): -2.36 kcal/mol
- solvation free energy, 298 K (in CCCCCO): -2.01 kcal/mol
- solvation free energy, 298 K (in CCCCO): -2.17 kcal/mol
- solvation free energy, 298 K (in CCCO): -2.01 kcal/mol
- solvation free energy, 298 K (in CCOC(C)=O): -2.55 kcal/mol
- solvation free energy, 298 K (in CN1CCCC1=O): -1.8 kcal/mol
- solvation free energy, 298 K (in CN(C)C=O): -1.98 kcal/mol
- solvation free energy, 298 K (in Cc1ccc(C)cc1): -2.32 kcal/mol
- solvation free energy, 298 K (in Cc1cccc(C)c1): -2.33 kcal/mol
- solvation free energy, 298 K (in Cc1ccccc1C): -2.31 kcal/mol
- solvation free energy, 298 K (in ClC(Cl)(Cl)Cl): -2.44 kcal/mol
- solvation free energy, 298 K (in Ic1ccccc1): -1.91 kcal/mol
- solvation free energy, 298 K (in N#Cc1ccccc1): -1.97 kcal/mol
- solvation free energy, 298 K (in O): 1.17 kcal/mol
- solvation free energy, 298 K (in O=CN1CCOCC1): -1.36 kcal/mol
- solvation free energy, 298 K (in c1ccccc1): -2.32 kcal/mol
